# Test results as given in BindingDB's records for doi:10.1016/j.bmcl.2004.08.009 (Deltagen Research Laboratories, 2004).
# Key:
# [1] = Inhibition of MCP-1 induced chemotaxis in THP-1 cells
# [2] = target: C-C chemokine receptor type 2 (Homo sapiens, UniProt P41597); assay: Inhibition of MCP-1 induced chemotaxis in THP-1 cells
# Sequence of C-C chemokine receptor type 2 (P41597 whole entry): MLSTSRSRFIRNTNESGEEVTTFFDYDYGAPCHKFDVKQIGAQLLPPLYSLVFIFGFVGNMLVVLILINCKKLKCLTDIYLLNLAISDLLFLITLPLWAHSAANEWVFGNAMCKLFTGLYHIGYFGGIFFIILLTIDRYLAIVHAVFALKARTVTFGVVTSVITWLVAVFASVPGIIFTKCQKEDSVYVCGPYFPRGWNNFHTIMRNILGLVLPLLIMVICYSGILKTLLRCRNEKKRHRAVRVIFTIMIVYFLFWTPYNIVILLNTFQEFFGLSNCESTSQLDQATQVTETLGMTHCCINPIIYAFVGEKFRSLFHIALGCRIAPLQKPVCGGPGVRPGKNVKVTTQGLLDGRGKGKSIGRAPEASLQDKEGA
EC50 [1],EC50 [2],Structure (SMILES)
610 nM,–,O=C(CNC(=O)c1cccc(C(F)(F)F)c1)NC1CCCN(Cc2ccc(Cl)cc2)C1 (stereo not given) [N-{[1-(4-Chloro-benzyl)-piperidin-3-ylcarbamoyl]-methyl}-3-trifluoromethyl-benzamide]
360 nM,–,O=C(CNC(=O)c1cccc(C(F)(F)F)c1)N[C@H]1CCN(Cc2ccc(Cl)cc2)C1
20 nM,–,O=C(CNC(=O)c1cccc(C(F)(F)F)c1)N[C@@H]1CCN(Cc2ccc(Cl)cc2)C1 [(R)-N-(2-(1-(4-chlorobenzyl)pyrrolidin-3-ylamino)-2-oxoethyl)-3-(trifluoromethyl)benzamide]
–,810 nM,O=C(CNC(=O)c1cccc(C(F)(F)F)c1)NC[C@H]1CCCN1Cc1ccc(Cl)cc1
40 nM,–,O=C(CNC(=O)c1cccc(C(F)(F)F)c1)NCC1CCN(Cc2ccc(Cl)cc2)CC1 [N-({[1-(4-Chloro-benzyl)-piperidin-4-ylmethyl]-carbamoyl}-methyl)-3-trifluoromethyl-benzamide]
